Laboratory results reported in the OPERA property sets (Mansouri et al. 2018).
In brackets after ≈: the same amount, converted by molar mass.

Cc1cc(C)nc(C(N)=O)n1
solubility (20 °C): 1320 mM (≈ 200000 µg/mL)

CC(C(=O)O)C(C)(C)CCC(=O)O (stereo not drawn)
solubility (26 °C): 29.8 mM (≈ 5600 µg/mL)

N#Cc1ccc(C(=O)O)cc1
solubility (20 °C): 8.16 mM (≈ 1200 µg/mL)

O=C(c1ccccc1I)N(O)c1ccccc1
solubility: 0.295 mM (≈ 100 µg/mL)

CCCCCc1ccc(O)cc1O
solubility: 11.1 mM (≈ 2000 µg/mL)

CCCCOC(=O)CCO
solubility: 51.3 mM (≈ 7500 µg/mL)

O=C(O)c1ccc([N+](=O)[O-])c(C(=O)O)c1
solubility (25 °C): 45.8 mM (≈ 9670 µg/mL)

Cc1ccc(C)c(C)n1
solubility (26 °C): 257 mM (≈ 31200 µg/mL)

CCOC(=O)N(CC)CC
solubility: 86.1 mM (≈ 12500 µg/mL)

NC(=O)NCNC(N)=O
solubility (28 °C): 223 mM (≈ 29400 µg/mL)

OCc1ccc(I)cc1
solubility (20 °C): 1.79 mM (≈ 420 µg/mL)

c1ccc2c(c1)-c1cccc3cc4c(ccc5ccccc54)c-2c13
solubility (27 °C): 3.31e-06 mM (≈ 0.001 µg/mL)

CCC(C)CC(O)CC (stereo not drawn)
solubility (25 °C): 13.8 mM (≈ 1800 µg/mL)

O=CNCC(=O)O
solubility (25 °C): 1850 mM (≈ 191000 µg/mL)

CCC(Br)(Br)C(=O)O
solubility: 134 mM (≈ 33000 µg/mL)

Oc1cncc2cccnc12
solubility (20 °C): 22 mM (≈ 3220 µg/mL)

O=C(O)CCNC(=O)Nc1ccc([N+](=O)[O-])cc1
solubility (20 °C): 1.97 mM (≈ 500 µg/mL)

O=C(O)CC(SC(CC(=O)O)C(=O)O)C(=O)O (stereo not drawn)
solubility (20 °C): 323 mM (≈ 86000 µg/mL)

O=C(O)c1cc(Br)ccc1Cl
solubility (21 °C): 11.2 mM (≈ 2630 µg/mL)

CCOC(C)CCO (stereo not drawn)
solubility (20 °C): 423 mM (≈ 50000 µg/mL)

O=C1COc2ccccc2N1
solubility (20 °C): 2.68 mM (≈ 400 µg/mL)

CCNC(CC)C(=O)O (stereo not drawn)
solubility: 381 mM (≈ 50000 µg/mL)

CCCSS(=O)CCC (stereo not drawn)
solubility: 120 mM (≈ 20000 µg/mL)

CCCCC(CCC(=O)O)CC(=O)O (stereo not drawn)
solubility (20 °C): 40 mM (≈ 8100 µg/mL)

O=C(O)C(Br)=C(Br)Br
solubility (20 °C): 43.7 mM (≈ 13500 µg/mL)

NC(=O)NCl
solubility: 2120 mM (≈ 200000 µg/mL)

O=C(O)CCP(=O)(O)O
solubility (20 °C): 3170 mM (≈ 488000 µg/mL)

NC(=O)NCO
solubility (28 °C): 451 mM (≈ 40600 µg/mL)

CC(=O)OC[C@@H](O)[C@@H](OC(C)=O)[C@H](OC(C)=O)[C@H](C=O)OC(C)=O
solubility (25 °C): 44.2 mM (≈ 15400 µg/mL)

CNC(CC(=O)O)C(=O)O (stereo in doubt)
solubility (21 °C): 176 mM (≈ 25900 µg/mL)

CC1=C(C(=O)O)CCC1(C)C
solubility (25 °C): 1.3 mM (≈ 200 µg/mL)

CC(=O)NC(=O)NC(C)=O
solubility (25 °C): 486 mM (≈ 70000 µg/mL)

CCC1(C)OC(=O)NC1=O (stereo not drawn)
solubility (25 °C): 1050 mM (≈ 150000 µg/mL)

NP(N)(=O)c1ccccc1
solubility (25 °C): 71.1 mM (≈ 11100 µg/mL)

CCOP(=O)(Cc1ccc(-c2nc3ccccc3s2)cc1)OCC
solubility (22 °C): 0.0996 mM (≈ 36 µg/mL)

CC1CCC(=NO)C(=NO)C1 (stereo not drawn)
solubility (25 °C): 21.8 mM (≈ 3400 µg/mL)

CC(C)(S(C)(=O)=O)S(C)(=O)=O
solubility: 35.4 mM (≈ 7100 µg/mL)

O=C(c1cc([N+](=O)[O-])cc([N+](=O)[O-])c1)N(O)c1ccccc1
solubility: 0.231 mM (≈ 70 µg/mL)

CC(C)OC(=O)C(C)(C)O
solubility: 1030 mM (≈ 150000 µg/mL)

CCOC(=O)[C@H](C)NC(=O)CCl
solubility: 345 mM (≈ 66700 µg/mL)

O=c1nc[nH]c2nc(-c3ccccc3)c(-c3ccccc3)nc12
solubility (20 °C): 0.666 mM (≈ 200 µg/mL)

NC(=S)NNC(N)=S
solubility (23 °C): 16 mM (≈ 2400 µg/mL)

CCCCC(CC)COC(=O)NS(N)(=O)=O (stereo not drawn)
solubility (25 °C): 3.96 mM (≈ 1000 µg/mL)
